Data published in patent US20180169100A1, “Cancer Stem Cell Targeting Compounds” (Godavari Biorefineries Limited, priority 2014, published 2018).

Key:
Assay type in all cases: cell-based
[1] = test system: Bu25tk; assay: In vitro colorimetric cell death assay (MTT); conditions: Bu25tk cervical cancer cell line, 48 hours with compound, read-out: IC 50 Value
Protocol: (§1) For assessing cell viability in vitro colorimetric cell death assay was carried out where the cells were grown in two-dimensional surface as follows. Cancer cells with plating efficiency as mentioned herein below for respective cell lines were plated in a 96 well plate. The plate was incubated for 24 hours in a 5% CO2 atmosphere at 37 degrees Celsius, a range of concentrations from 10^−3 M to 10^−6 M of the compound Ethyl-5,6-dimethyl-4-(piperidin-1-yl)thieno[2,3-d]pyrimidine was added to the wells, the plates were incubated further for 48 hours in a 5% CO2 atmosphere, the plate was centrifuged twice at 3000 rpm for 3 minutes, the supernatant fluid was discarded, 100 uL of 0.5 mg/mL 3-(4,5-Dimethylthiazol-2-yl)-2,5-Diphenyltetrazolium Bromide (MTT) solution was added and the plate was incubated for 4 hours in a 5% CO2 atmosphere at 37 degrees Celsius. The plate was then centrifuged twice at 3000 rpm for 3 minutes, supernatant was aspirated very carefully, 200 uL Dimethyl sulfoxide (DMSO) was added to each well to solubilize MTT crystals and mixed well by shaking the plate, the plate was incubated for 10 minutes in a 5% CO2 atmosphere at 37 degrees Celsius, the plate was placed on the shaker of an ELISA plate reader and the absorbance at 570 nm was measured, the percentage of viable cells remaining was calculated by first subtracting the background absorbance then comparing to the absorbance of a non-drug-treated cell sample, and the results were plotted on a graph to determine the IC50 for the compound Ethyl-5,6-dimethyl-4-(piperidin-1-yl)thieno[2,3-d]pyrimidine which was calculated by regression analysis.

[2] = test system: Colo320; assay: In vitro colorimetric cell death assay (MTT); conditions: Colo320 colon cancer cell line, 48 hours with compound, read-out: IC 50 Value
Protocol: as §1

[3] = test system: DU145; assay: In vitro colorimetric cell death assay (MTT); conditions: DU145 prostate cancer cell line, 48 hours with compound, read-out: IC 50 Value
Protocol: as §1

[4] = test system: HeLa; assay: In vitro colorimetric cell death assay (MTT); conditions: HeLa cervical cancer cell line, 48 hours with compound, read-out: IC 50 Value
Protocol: as §1

[5] = test system: Hep3B; assay: In vitro colorimetric cell death assay (MTT); conditions: Hep3B hepatic cancer cell line, 48 hours with compound, read-out: IC 50 Value
Protocol: as §1

[6] = test system: L929; assay: In vitro colorimetric cell death assay (MTT); conditions: L929 fibroblast cancer cell line, 48 hours with compound, read-out: IC 50 Value
Protocol: as §1

[7] = test system: LNCaP; assay: In vitro colorimetric cell death assay (MTT); conditions: LNCaP prostate cancer cell line, 48 hours with compound, read-out: IC 50 Value
Protocol: as §1

[8] = test system: MCF-7; assay: In vitro colorimetric cell death assay (MTT); conditions: MCF-7 breast cancer cell line, 48 hours with compound, read-out: IC 50 Value
Protocol: as §1

[9] = test system: MDAMB231; assay: In vitro colorimetric cell death assay (MTT); conditions: MDAMB231 breast cancer cell line, 48 hours with compound, read-out: IC 50 Value
Protocol: as §1

[10] = test system: PC3; assay: In vitro colorimetric cell death assay (MTT); conditions: PC3 prostate cancer cell line, 48 hours with compound, read-out: IC 50 Value
Protocol: as §1

[11] = test system: SiHa; assay: In vitro colorimetric cell death assay (MTT); conditions: SiHa cervical cancer cell line, 48 hours with compound, read-out: IC 50 Value
Protocol: as §1

[12] = test system: T47D; assay: In vitro colorimetric cell death assay (MTT); conditions: T47D breast cancer cell line, 48 hours with compound, read-out: IC 50 Value
Protocol: as §1

[13] = test system: primary spheres of DU145; assay: 3D Primary Sphere Assay; conditions: GC 49(±5), GCD 41(±4)
Protocol: (§2) The ability of cancer stem cells to form spheres in a serum free media was determined by 3D Primary Sphere Assay, where the spheres were in a suspended form. Through this assay the potency of the compound Ethyl-5,6-dimethyl-4-(piperidin-1-yl)thieno[2,3-d]pyrimidine to kill cancer stem cells in comparison to the standard chemotherapeutic drug such as Cisplatin was evaluated as follows. The Cells were grown in three dimensions on a plastic substrate, harvested in suspension in serum-free media, then the cells in the sample were trypsinised and a single cell suspension was formed by passing through a cell strainer. The cells were diluted according to the predetermined plating efficiency for the cell line being studied by suspending the cells in stem cell culture medium. 100 uL of this suspension was added into each well of a 96 well suspension plate, and the plate was incubated at 37 degrees Celsius in 5% CO2 atmosphere for 24 hours, then 2 uL of appropriate concentrations of the drugs were added into each respective well along with 100 uL of stem cell culture medium, and the plates incubated at 37 degrees Celsius under 5% CO2 atmosphere for 72 hours. 2.5 uL of the appropriate drug concentration was added to each respective well along with 50 uL of stem cell culture medium and the plates were incubated at 37 degrees Celsius under 5% CO2 atmosphere for 72 hours. 3 uL of the appropriate concentration of the compound as mentioned below was added to each respective well along with 50 uL of stem cell culture medium, incubated at 37 degrees Celsius under 5% CO2 atmosphere for 72 hours, the spheres formed were observed under a microscope, counted and scored by size. Results of the in vitro 3D sphere forming stem cell assay were set forth in a tabular manner. […] GC refers to a growth control performed in the absence of drug or solvent (DMSO). GCD refers to a growth control performed in the absence of drug, but in the presence of DMSO.

[14] = test system: primary spheres of MDA MB231; assay: 3D Primary Sphere Assay; conditions: GC 92(±7), GCD 83(±6)
Protocol: as §2

[15] = test system: primary spheres of PC3; assay: 3D Primary Sphere Assay; conditions: GC 120(±10), GCD 103(±9)
Protocol: as §2

[16] = test system: CD44 population of PC3 cells; assay: Flow cytometry study, CD44/CD24 staining; conditions: PC3 cells exposed to IC25 drug conc. for 48 hrs; untreated 85.61% cells CD44
Protocol: For Flow cytometry assay the PC3 cancer cells (0.35×106) were cultured in Dulbecco's Modified Eagle's medium (DMEM) with 10% Fetal Bovine Serum (F.B.S) in 60 mm tissue culture plates for 24 hrs in 5% CO2 at 37° C. Cells were then exposed to IC25 drug conc. of Cisplatin in duplicates. Similarly other sets of cells were treated with IC25 drug conc. of Ethyl-5,6-dimethyl-4-(piperidin-1-yl)thieno[2,3-d]pyrimidine for 48 hrs. and incubated in 5% CO2 at 37° C. for 48 hrs. Appropriate controls that is growth control (cells+DMEM medium) and solvent control (cells+control DMEM medium+DMSO) and medium control (DMEM) were also kept along with the experimental sets. After 48 hrs the cells were observed under the microscope, trypsinised, washed with Dulbecco's phosphate-buffered saline (D.P.B.S.) 50 μl of cells were taken for each set and 5 μl of each of the CD44-PE labeled and CD24-FITC labeled antibodies were added. The sets were incubated for 45 mins at 4° C. for proper binding of antibodies. After incubation the cells were washed with 200 μl of D.P.B.S by centrifugation. The supernatant was discarded and the cells were finally suspended in 300 μl of FACS buffer (4% Fetal Bovine Serum in D.P.B.S). Samples were kept at 4° C. in dark till they were acquired on FACS. Acquisition was done on BD-FACS Accuri C6.

[17] = test system: CD44 population of DU145 cells; assay: Flow cytometry study, CD44/CD24 staining; conditions: DU145 cells exposed to IC25 drug conc. for 48 hrs; untreated 70.18% cells CD44

N.N.[Cl][Pt][Cl] [Cisplatin]
IC50 [1]: 59.3 µM
IC50 [2]: 38.3 µM
IC50 [3]: 31.6 µM
IC50 [4]: 33.9 µM
IC50 [5]: 37.6 µM
IC50 [6]: 29 µM
IC50 [7]: 52.5 µM
IC50 [8]: 29.2 µM
IC50 [9]: 48.4 µM
IC50 [10]: 11.2 µM
IC50 [11]: 35.5 µM
IC50 [12]: 58.9 µM
total number of spheres formed ([13]; DU145, final conc. 1.25 μM): 48(±5)
total number of spheres formed ([13]; DU145, final conc. 12.5 μM): 41(±5)
total number of spheres formed ([13]; DU145, final conc. 125 μM): 23(±4)
total number of spheres formed ([13]; DU145, final conc. 1250 μM): 12(±3)
total number of spheres formed ([14]; MDA MB231, final conc. 1.25 μM): 76(±8)
total number of spheres formed ([14]; MDA MB231, final conc. 12.5 μM): 52(±6)
total number of spheres formed ([14]; MDA MB231, final conc. 125 μM): 39(±3)
total number of spheres formed ([14]; MDA MB231): 25(±5)
total number of spheres formed ([15]; PC3, final conc. 1.25 μM): 109(±6)
total number of spheres formed ([15]; PC3, final conc. 12.5 μM): 107(±9)
total number of spheres formed ([15]; PC3, final conc. 125 μM): 88(±6)
total number of spheres formed ([15]; PC3): 74(±7)
effect on CD44 population [16]: did not have much effect
effect on CD44 population [17]: did not have much effect
